Here are results for 25 compounds from patent US10266560B2, “Bile acid analogs as FXR/TGR5 agonists and methods of use thereof” (Enanta Pharmaceuticals, Inc., priority 2014, dated 2019).

pEC50: −log10 of the molar value. Read-outs that look alike come from different tables or passages of the source.

The target in this test is Human FXR (NR1H4) (Homo sapiens (Human), UniProt Q96RI1). As to the kind of experiment: Human FXR (NR1H4) Assay (Gal4 promoter driven luciferase reporter transactivation in CHO cells). The class given is cell-based. The text has this:
Assays Human FXR (NR1H4) Assay
Determination of a ligand mediated Gal4 promoter driven transactivation to quantify ligand binding mediated activation of FXR. FXR Reporter Assay kit purchased from Indigo Bioscience (Catalogue number: IB00601) to determine the potency and efficacy of compound developed by Enanta that can induce FXR activation. The principle application of this reporter assay system is to quantify functional activity of human FXR. The assay utilizes non-human mammalian cells, CHO (Chinese hamster ovary) cells engineered to express human NR1H4 protein (referred to as FXR). Reporter cells also incorporate the cDNA encoding beetle luciferase which catalyzes the substrates and yields photon emission. Luminescence intensity of the reaction is quantified using a plate-reading luminometer, Envision. Reporter Cells include the luciferase reporter gene functionally linked to an FXR responsive promoter. Thus, quantifying changes in luciferase expression in the treated reporter cells provides a sensitive surrogate measure of the changes in FXR activity. […] The assay is according to the manufacturer's instructions. In brief, the assay was performed in white, 96 well plates using final volume of 200 ul containing cells with different doses of compounds. Retrieve Reporter Cells from −80° C. storage. Perform a rapid thaw of the frozen cells by transferring a 10 ml volume of 37° C. cell recovery medium into the tube of frozen cells. Recap the tube of Reporter Cells and immediately place it in a 37° C. water bath for 5-10 minutes. Retrieve the tube of Reporter Cell Suspension from the water bath. Sanitize the outside surface of the tube with a 70% alcohol swab, and then transfer it into the cell culture hood. Dispense 100 μl of cell suspension into each well of the 96-well Assay Plate. Transfer the plate into 37° C. incubator, allowing the cells adherent to the bottom of the well. Dilute compounds in Dilution Plate (DP), and administrate to cells at Assay Plate (AP). DMSO content of the samples was kept at 0.2%. Cells were incubated for additional 22 hours before luciferase activities were measured. Thirty minutes before intending to quantify FXR activity, remove Detection Substrate and Detection Buffer from the refrigerator and place them in a low-light area so that they may equilibrate to room temperature. Remove the plate's lid and discard all media contents by ejecting it into an appropriate waste container. Gently tap the inverted plate onto a clean absorbent paper towel to remove residual droplets. Cells will remain tightly adhered to well bottoms. Add 100 μl of luciferase detection reagent to each well of the assay plate. Allow the assay plate to rest at room temperature for at least 5 minutes following the addition of LDR. Set the instrument (Envision) to perform a single 5 second “plate shake” prior to reading the first assay well. Read time may be 0.5 second (500 mSec) per well.
(In a reporter assay the amount or activity of a reporter protein is the signal.)

Where [1] appears, read: FXR agonistic potency range; CHO reporter cells expressing human NR1H4, 22 hours incubation; read-out: EC50.

Human FXR (NR1H4), sequence (Q96RI1 whole entry, the tested form may be a part): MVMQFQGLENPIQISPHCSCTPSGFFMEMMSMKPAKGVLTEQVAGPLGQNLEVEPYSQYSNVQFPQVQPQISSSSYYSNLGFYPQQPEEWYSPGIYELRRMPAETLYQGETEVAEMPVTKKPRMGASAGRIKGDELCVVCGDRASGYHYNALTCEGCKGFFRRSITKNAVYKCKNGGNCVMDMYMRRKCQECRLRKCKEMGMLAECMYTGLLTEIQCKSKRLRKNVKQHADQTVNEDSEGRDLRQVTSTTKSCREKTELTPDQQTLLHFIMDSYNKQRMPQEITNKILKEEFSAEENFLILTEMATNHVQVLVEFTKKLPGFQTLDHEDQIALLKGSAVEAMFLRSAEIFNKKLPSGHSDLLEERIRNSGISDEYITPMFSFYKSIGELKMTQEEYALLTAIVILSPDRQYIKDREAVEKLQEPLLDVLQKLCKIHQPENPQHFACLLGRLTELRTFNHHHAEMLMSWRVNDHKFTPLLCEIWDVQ

One may read the pEC50 as the negative decadic logarithm of the EC50, by convention in mol/L. On to `CC[C@@H]1C2C[C@H](O)CCC2(C)[C@H]2CCC3(C)C([C@H](C)CCC(=O)NS(=O)(=O)C4CCCCC4)CC[C@H]3[C@@H]2[C@@H]1O` (some centres unmarked) [Example 468], for which the Emax (CHO, read-out: Efficacy (%)) came to 480%. The negative logarithm of the EC50 (pEC50) under setting [1] is over 7.00.
`CC[C@@H]1C2C[C@H](O)CCC2(C)[C@H]2CCC3(C)C([C@H](C)CCC(=O)NS(=O)(=O)c4cnccn4)CC[C@H]3[C@@H]2[C@@H]1O` (some centres unmarked) [Example 469]: the Emax (CHO; read-out: Efficacy (%)) stood at 447%. For the setting “read-out: EC50”, the negative logarithm of the EC50 (pEC50) is 5.00 to 6.00.
Turning to `CC[C@@H]1C2C[C@H](O)CCC2(C)[C@H]2CCC3(C)C([C@H](C)CCC(=O)NS(=O)(=O)c4cccc5ncccc45)CC[C@H]3[C@@H]2[C@@H]1O` (some centres unmarked) [Example 470], the Emax (CHO; read-out: Efficacy (%)) turned out to be 439%. Further, for the setting “read-out: EC50”, the pEC50 is 6.00 to 7.00.
On to `CC[C@@H]1C2C[C@H](O)CCC2(C)[C@H]2CCC3(C)C([C@H](C)CCC(=O)NS(=O)(=O)c4cccc(OC(F)(F)F)c4)CC[C@H]3[C@@H]2[C@@H]1O` (some centres unmarked) [Example 471], for which, under “CHO, read-out: Efficacy (%)”, the Emax is 467%. Also, the pEC50 under setting [1] is over 7.00.
Taken in the same sequence, the figures for `CC[C@@H]1C2C[C@H](O)CCC2(C)[C@H]2CCC3(C)C([C@H](C)CCC(=O)NS(=O)(=O)c4ccc5ccccc5c4)CC[C@H]3[C@@H]2[C@@H]1O` (some centres unmarked) [Example 472] were 580% and over 7.00.
Turning to `CC[C@@H]1C2C[C@H](O)CCC2(C)[C@H]2CCC3(C)C([C@H](C)CCC(=O)NS(=O)(=O)c4ccc(OC(F)(F)F)cc4)CC[C@H]3[C@@H]2[C@@H]1O` (some centres unmarked) [Example 473], for the setting “CHO, read-out: Efficacy (%)”, the Emax is 606%. Moreover, the pEC50 under setting [1] was over 7.00.
As for `CC[C@@H]1C2C[C@H](O)CCC2(C)[C@H]2CCC3(C)C([C@H](C)CCC(=O)NS(=O)(=O)c4nccs4)CC[C@H]3[C@@H]2[C@@H]1O` (some centres unmarked) [Example 474], the Emax (CHO; read-out: Efficacy (%)) is 463%. The negative-log EC50 (pEC50) (read-out: EC50) was 5.00 to 6.00.
Regarding `CC[C@@H]1C2C[C@H](O)CCC2(C)[C@H]2CCC3(C)C([C@H](C)CCC(=O)NS(=O)(=O)c4ccc(C(F)(F)F)cc4)CC[C@H]3[C@@H]2[C@@H]1O` (some centres unmarked) [Example 475], the Emax (CHO, read-out: Efficacy (%)) stood at 590%. Besides, under setting [1], the pEC50 is over 7.00.
For the compound `CC[C@@H]1C2C[C@H](O)CCC2(C)[C@H]2CCC3(C)C([C@H](C)CCC(=O)NS(=O)(=O)c4ccc(OC)c(F)c4)CC[C@H]3[C@@H]2[C@@H]1O` (some centres unmarked) [Example 476], for the setting “CHO, read-out: Efficacy (%)”, the Emax is 593%. The pEC50 under setting [1] is over 7.00.
Taken in the same sequence, the figures for `CC[C@@H]1C2C[C@H](O)CCC2(C)[C@H]2CCC3(C)C([C@H](C)CCC(=O)NS(=O)(=O)c4cccc(OC)c4)CC[C@H]3[C@@H]2[C@@H]1O` (some centres unmarked) [Example 477] were 596% and over 7.00.
With `CC[C@@H]1C2C[C@H](O)CCC2(C)[C@H]2CCC3(C)C([C@H](C)CCC(=O)NS(=O)(=O)c4ccc(OC)c(OC)c4)CC[C@H]3[C@@H]2[C@@H]1O` (some centres unmarked) [Example 478], where the note is “CHO; read-out: Efficacy (%)”, the Emax was determined as 589%. Besides, the pEC50 (read-out: EC50) is 6.00 to 7.00.
As for `CC[C@@H]1C2C[C@H](O)CCC2(C)[C@H]2CCC3(C)C([C@H](C)CCC(=O)NS(=O)(=O)c4cccc(Cl)c4)CC[C@H]3[C@@H]2[C@@H]1O` (some centres unmarked) [Example 479], the Emax (CHO, read-out: Efficacy (%)) was found to be 572%. For the same compound, the pEC50 under setting [1] is over 7.00.
Taken in the same sequence, the figures for `CC[C@@H]1C2C[C@H](O)CCC2(C)[C@H]2CCC3(C)C([C@H](C)CCC(=O)NS(=O)(=O)c4ccc(Cl)cc4)CC[C@H]3[C@@H]2[C@@H]1O` (some centres unmarked) [Example 480] were 346% and over 7.00.
Take `CC[C@@H]1C2C[C@H](O)CCC2(C)[C@H]2CCC3(C)C([C@H](C)CCC(=O)NS(=O)(=O)c4ccc5c(c4)OCO5)CC[C@H]3[C@@H]2[C@@H]1O` (some centres unmarked) [Example 481]: where the note is “CHO, read-out: Efficacy (%)”, the Emax stood at 359%. Moreover, the pEC50 under setting [1] is over 7.00.
For `CC[C@@H]1C2C[C@H](O)CCC2(C)[C@H]2CCC3(C)C([C@H](C)CCC(=O)NS(=O)(=O)C4CCCC4)CC[C@H]3[C@@H]2[C@@H]1O` (some centres unmarked) [Example 482], the Emax (CHO, read-out: Efficacy (%)) was 342%. The pEC50 under setting [1] is over 7.00.
Consider `CC[C@@H]1C2C[C@H](O)CCC2(C)[C@H]2CCC3(C)C([C@H](C)CCC(=O)NS(=O)(=O)c4cccc5ccccc45)CC[C@H]3[C@@H]2[C@@H]1O` (some centres unmarked) [Example 483], for which the Emax (CHO, read-out: Efficacy (%)) was 308%. The pEC50 under setting [1] is over 7.00.
Taken in the same sequence, the figures for `CC[C@@H]1C2C[C@H](O)CCC2(C)[C@H]2CCC3(C)C([C@H](C)CCC(=O)NS(=O)(=O)c4ccc(C(C)(C)C)cc4)CC[C@H]3[C@@H]2[C@@H]1O` (some centres unmarked) [Example 484] were 349% and over 7.00.
For `CC[C@H]1[C@@H](O)[C@@H]2[C@H](CC[C@]3(C)[C@@H]([C@H](C)C[C@@H](C)C(=O)NS(=O)(=O)c4ccc(C(C)(C)C)cc4)CC[C@@H]23)[C@@]2(C)CC[C@@H](O)C[C@@H]12` [Example 485], where the note is “CHO; read-out: Efficacy (%)”, the Emax is 185%. Besides, where the note is “read-out: EC50”, the negative-log EC50 (pEC50) was 6.00 to 7.00.
With `CC[C@H]1[C@@H](O)[C@@H]2[C@H](CC[C@]3(C)[C@@H]([C@H](C)C[C@@H](C)C(=O)NS(=O)(=O)C4CC4)CC[C@@H]23)[C@@]2(C)CC[C@@H](O)C[C@@H]12` [Example 486], the Emax (CHO; read-out: Efficacy (%)) worked out at 387%. In addition, under “read-out: EC50”, the pEC50 was 6.00 to 7.00.
As for `CC[C@H]1[C@@H](O)[C@@H]2[C@H](CC[C@]3(C)[C@@H]([C@H](C)C[C@@H](C)C(=O)NS(=O)(=O)c4ccc(OC(F)(F)F)cc4)CC[C@@H]23)[C@@]2(C)CC[C@@H](O)C[C@@H]12` [Example 487], the Emax (CHO, read-out: Efficacy (%)) came out at 287%. For the same compound, the negative logarithm of the EC50 (pEC50) under setting [1] is over 7.00.
On to `CC[C@H]1[C@@H](O)[C@@H]2[C@H](CC[C@]3(C)[C@@H]([C@H](C)C[C@H](C)C(=O)NS(=O)(=O)c4ccc(C(C)(C)C)cc4)CC[C@@H]23)[C@@]2(C)CC[C@@H](O)C[C@@H]12` [Example 488], for which the Emax (CHO; read-out: Efficacy (%)) was determined as 132%. Besides, the pEC50 (read-out: EC50) was 6.00 to 7.00.
Taken in the same sequence, the figures for `CC[C@H]1[C@@H](O)[C@@H]2[C@H](CC[C@]3(C)[C@@H]([C@H](C)CCC(=O)N(C)S(=O)(=O)c4ccccc4)CC[C@@H]23)[C@@]2(C)CC[C@@H](O)C[C@@H]12` [Example 489] were 231% and 5.00 to 6.00.
Take `CC[C@H]1[C@@H](O)[C@@H]2[C@H](CC[C@]3(C)[C@@H]([C@H](C)CCCC(=O)NS(=O)(=O)C4CC4)CC[C@@H]23)[C@@]2(C)CC[C@@H](O)C[C@@H]12` [Example 490]: the Emax (CHO; read-out: Efficacy (%)) came out at 223%. Besides, the negative-log EC50 (pEC50) (read-out: EC50) was 6.00 to 7.00.
`CC[C@H]1[C@@H](O)[C@@H]2[C@H](CC[C@]3(C)[C@@H]([C@H](C)CCCC(=O)NS(=O)(=O)c4ccc(C(C)(C)C)cc4)CC[C@@H]23)[C@@]2(C)CC[C@@H](O)C[C@@H]12` [Example 491]: the Emax (CHO, read-out: Efficacy (%)) amounted to 182%. Moreover, the negative-log EC50 (pEC50) under setting [1] is over 7.00.
As to `CC[C@H]1[C@@H](O)[C@@H]2[C@H](CC[C@]3(C)[C@@H]([C@H](C)CCCC(=O)NS(=O)(=O)C4(C)CC4)CC[C@@H]23)[C@@]2(C)CC[C@@H](O)C[C@@H]12` [Example 492], under “CHO; read-out: Efficacy (%)”, the Emax is 226%. Besides, the pEC50 (read-out: EC50) is 6.00 to 7.00.
